For 25 compounds, IC50 results are on record in US11993581B2, “Pyridazine compounds for inhibiting Nav1.8” (Lieber Institute, Inc., priority 2018, dated 2024).

In this assay the target is T1, human Nav1.8 (hNav1.8) ion channel (Homo sapiens, UniProt Q9Y5Y9).
T1 construct: expressed in transfected cells
The assay can be described thus: Nav1.8 inhibition, estimated IC50 (Nav1.8 fluorescence, PatchXpress and/or IonFlux HT automated patch clamp assay). The settings on record: HEK293 cells stably expressing hNav1.8; determined using one or more of the described methods; read-out: Activity range (estimated IC50). The assay is classed as cell-based. As for the experimental part:
The ability of pyridine carboxamide derivatives exemplified above to inhibit the Nav1.8 channel was determined using one or more of the methods described below.
HEK Nav1.8 β1/β2 Stably Expressing Cell Line
A HEK293 cell line stably expressing the human Nav1.8 (hNav1.8) ion channel with β1/β2 subunits was constructed. The cell line is suitable for IC50 determination in fluorescence and electrophysiological based assays. It is also suitable to conduct mechanism of action pharmacology studies in electrophysiological assays. HEK293 Nav1.8 cells are grown as adherent monolayers in DMEM/high glucose media, 10% fetal bovine serum, Na pyruvate (2 mM), Hepes (10 mM) with selection agents G418 (400 mg/L) and puromycin (0.5 mg/L) at 37 degrees C., 10% CO2.
Nav1.8 Fluorescence Inhibition Assay
Compounds were made up to or supplied as a 10-mM stock solution using DMSO as the vehicle. Concentration-response curves were generated using a Matrix multichannel pipettor. Compound source plates were made by diluting 10 mM compound stocks to create 500 μM (100×) solutions in DMSO in 96-well v-bottom plates. Compounds were then serially diluted in 100% DMSO to generate a 5 point, 4-fold dilution scheme dose response curve. 2 μL of the 100× dose response curves were then added to preincubation and stimulation assay plates. 100 μL of pre-incubation buffer and 200 μl of stimulation buffer was then added to the plates resulting in a final assay test concentration range of 5 μM to 0.02 μM with a final DMSO concentration of 1%.
On the day of assay, plates were washed to remove cell culture media using 2K EBSS buffer (135 mM NaCl, 2 mM KCl, 5 mM Glucose, 2 mM CaCl2, 1 mM MgCl2, 10 mM HEPES, pH 7.4). The Na-sensitive fluorescent dye, Asante Natrium Green-2 (ANG-2) was incubated for 60 min to allow equilibration and then washed with 2K EBSS. Plates were then transferred to a fluorescence plate reader (FLIPR™, Molecular Devices) for fluorescence measurement using an excitation wavelength of 490 nm and an emission wavelength of 565 nm. Compounds were pre-incubated for 5 min at final test concentration in the presence of ouabain (30 μM) to inhibit Na+ efflux through Na+/K+ exchanger. Following the pre-incubation phase, hNav1.8 channels were stimulated with 10 μM of the pyrethroid deltamethrin to prevent channel inactivation. The assay was run for 15 minutes with vehicle and 30 μM tetracaine serving as negative and positive controls, respectively. The peak change in fluorescence relative to negative and positive control wells was calculated and fit with a logistic equation to determine IC50.
PatchXpress Nav1.8 Inhibition Assay
HEK-Nav1.8 β1/β2 cells were recorded in whole cell patch-clamp using the PatchXpress automated patch clamp platforms (Molecular Devices). Cell suspensions were obtained by trypsinization of adherent monolayers, followed by gentle rocking for minimally 30 min. Compounds were prepared from 10 mM DMSO stocks.
Nav1.8 channel variants were evaluated using Protocol 1 in which cells were initially voltage clamped at a holding potential of −100 mV to maintain Nav1.8 in a closed resting state. After current amplitude becomes stable, the mid-point voltage of steady state inactivation was determined for each cell using a series of 5 sec conditioning steps to increasingly depolarized voltages (−100 to 0 mV) The holding potential was then reset to a voltage that produces ˜50% inactivation (Vhalf-set automatically via PatchXpress scripts) so that closed and inactivated channel inhibition could be assessed. Protocol 1 was run at a frequency of 0.1 Hz until current amplitude is steady (automatically determined by PatchXpress scripts). The effect of test reagent on Nav current amplitude was monitored using custom PatchXpress stability scripts which determines the timing of compound addition and washout.
Data were processed and analyzed using DataXpress 2.0 (Molecular Devices). […]

T1 sequence (Q9Y5Y9 whole entry): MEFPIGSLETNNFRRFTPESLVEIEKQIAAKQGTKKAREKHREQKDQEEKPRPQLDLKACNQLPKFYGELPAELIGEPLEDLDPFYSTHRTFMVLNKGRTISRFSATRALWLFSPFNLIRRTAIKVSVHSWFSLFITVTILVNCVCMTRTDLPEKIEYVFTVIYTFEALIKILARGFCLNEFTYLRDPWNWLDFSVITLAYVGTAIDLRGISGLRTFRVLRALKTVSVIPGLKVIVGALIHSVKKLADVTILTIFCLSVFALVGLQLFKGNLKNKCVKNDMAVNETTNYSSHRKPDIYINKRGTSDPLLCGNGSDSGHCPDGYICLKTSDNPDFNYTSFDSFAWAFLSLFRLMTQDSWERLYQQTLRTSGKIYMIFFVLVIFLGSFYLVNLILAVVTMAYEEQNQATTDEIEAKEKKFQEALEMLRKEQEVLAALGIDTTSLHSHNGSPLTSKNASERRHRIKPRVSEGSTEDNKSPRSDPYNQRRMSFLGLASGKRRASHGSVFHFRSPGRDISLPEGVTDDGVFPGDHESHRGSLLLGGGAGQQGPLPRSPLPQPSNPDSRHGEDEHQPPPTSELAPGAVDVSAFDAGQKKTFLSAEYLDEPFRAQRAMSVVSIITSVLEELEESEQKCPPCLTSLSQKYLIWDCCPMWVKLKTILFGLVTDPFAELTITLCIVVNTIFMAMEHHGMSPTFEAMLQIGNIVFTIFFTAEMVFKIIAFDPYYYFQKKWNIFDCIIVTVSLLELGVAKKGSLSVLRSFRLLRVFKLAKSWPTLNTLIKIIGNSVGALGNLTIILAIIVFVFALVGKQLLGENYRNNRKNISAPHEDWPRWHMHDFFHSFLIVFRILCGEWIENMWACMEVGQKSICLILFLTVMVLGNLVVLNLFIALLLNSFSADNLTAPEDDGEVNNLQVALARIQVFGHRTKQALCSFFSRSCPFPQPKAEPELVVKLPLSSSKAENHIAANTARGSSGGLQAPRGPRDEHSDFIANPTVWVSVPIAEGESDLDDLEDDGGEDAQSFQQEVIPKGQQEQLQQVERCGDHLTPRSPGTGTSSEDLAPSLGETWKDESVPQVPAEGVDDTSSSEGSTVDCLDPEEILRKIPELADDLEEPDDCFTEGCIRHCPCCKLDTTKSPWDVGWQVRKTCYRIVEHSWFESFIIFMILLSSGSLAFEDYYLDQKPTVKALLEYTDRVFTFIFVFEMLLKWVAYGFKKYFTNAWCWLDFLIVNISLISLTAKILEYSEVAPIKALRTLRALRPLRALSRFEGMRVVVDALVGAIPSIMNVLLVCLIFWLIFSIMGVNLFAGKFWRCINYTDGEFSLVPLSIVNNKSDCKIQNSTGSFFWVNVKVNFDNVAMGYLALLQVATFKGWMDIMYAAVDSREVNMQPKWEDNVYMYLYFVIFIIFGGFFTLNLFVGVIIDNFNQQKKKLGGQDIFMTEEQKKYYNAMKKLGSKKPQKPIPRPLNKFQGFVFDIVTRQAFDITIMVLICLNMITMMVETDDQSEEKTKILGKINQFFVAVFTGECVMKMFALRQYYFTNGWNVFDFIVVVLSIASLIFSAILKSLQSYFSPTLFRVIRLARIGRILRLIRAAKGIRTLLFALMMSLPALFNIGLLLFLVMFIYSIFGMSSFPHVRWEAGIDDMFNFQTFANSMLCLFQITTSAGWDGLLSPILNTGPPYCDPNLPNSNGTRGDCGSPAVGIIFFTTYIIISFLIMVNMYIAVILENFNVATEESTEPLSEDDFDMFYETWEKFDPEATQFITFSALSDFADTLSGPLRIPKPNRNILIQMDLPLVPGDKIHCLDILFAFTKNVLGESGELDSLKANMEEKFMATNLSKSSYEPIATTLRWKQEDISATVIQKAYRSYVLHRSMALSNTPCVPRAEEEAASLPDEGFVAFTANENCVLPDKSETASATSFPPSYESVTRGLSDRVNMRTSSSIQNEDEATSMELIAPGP
T1 sequence (Q07699 19-218 partner): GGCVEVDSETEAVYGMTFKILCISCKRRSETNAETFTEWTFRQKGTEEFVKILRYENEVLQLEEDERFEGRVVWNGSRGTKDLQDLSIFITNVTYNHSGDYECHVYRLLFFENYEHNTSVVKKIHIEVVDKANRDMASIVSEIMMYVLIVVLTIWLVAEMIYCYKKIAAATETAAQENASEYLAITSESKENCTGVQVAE

The term IC50 denotes the midpoint of a concentration-inhibition curve. Consider `CN(C)c1ncccc1CNC(=O)c1cnnc(-c2ccc(OCC3CC3)c(Cl)c2)c1` [Example 28, 6-[3-chloro-4-(cyclopropylmethoxy)phenyl]-N-[[2-(dimethylamino)-3-pyridyl]methyl]pyridazine-4-carboxamide], for which the IC50 is less than 500 nM. `O=C(NCc1cccnc1N1CCCC1)c1cnnc(-c2ccc(OCC3CC3)c(Cl)c2)c1` [Example 29, 6-[3-chloro-4-(cyclopropylmethoxy)phenyl]-N-[(2-pyrrolidin-1-yl-3-pyridyl)methyl]pyridazine-4-carboxamide]: the half-maximal inhibitory concentration (IC50) is less than 500 nM. As for `O=C(NCc1cccnc1N1CCCCC1)c1cnnc(-c2ccc(OCC3CC3)c(Cl)c2)c1` [Example 30, 6-[3-chloro-4-(cyclopropylmethoxy)phenyl]-N-[[2-(1-piperidyl)-3-pyridyl]methyl]pyridazine-4-carboxamide], the IC50 was less than 500 nM. The figure for `O=C(NCc1cc(F)cnc1N1CCOCC1)c1cnnc(-c2ccc(OCC3CC3)c(Cl)c2)c1` [Example 31, 6-[3-chloro-4-(cyclopropylmethoxy)phenyl]-N-[(5-fluoro-2-morpholino-3-pyridyl)methyl]pyridazine-4-carboxamide] is less than 500 nM. On to `O=C(NCc1cncnc1N1CCOCC1)c1cnnc(-c2ccc(OCC3CC3)c(Cl)c2)c1` [Example 32, 6-[3-chloro-4-(cyclopropylmethoxy)phenyl]-N-[(4-morpholinopyrimidin-5-yl)methyl]pyridazine-4-carboxamide], for which the IC50 is more than 1000 nM. With `O=C(NCc1nccnc1N1CCOCC1)c1cnnc(-c2ccc(OCC3CC3)c(Cl)c2)c1` [Example 33, 6-[3-chloro-4-(cyclopropylmethoxy)phenyl]-N-[(3-morpholinopyrazin-2-yl)methyl]pyridazine-4-carboxamide], the IC50 was less than 500 nM. In the case of `O=C(NCc1cccnc1N1C[C@@H]2C[C@H]1CO2)c1cnnc(-c2ccc(OCC3CC3)c(Cl)c2)c1` [Example 34, 6-[3-chloro-4-(cyclopropylmethoxy)phenyl]-N-[[2-[(1S,4S)-2-oxa-5-azabicyclo[2.2.1]heptan-5-yl]-3-pyridyl]methyl]pyridazine-4-carboxamide], the IC50 is less than 500 nM. In the case of `CS(=O)(=O)c1ccccc1CNC(=O)c1cnnc(-c2ccc(OCC3CC3)c(Cl)c2)c1` [Example 35, 6-[3-chloro-4-(cyclopropylmethoxy)phenyl]-N-[(2-methylsulfonylphenyl)methyl]pyridazine-4-carboxamide], the IC50 was 500 to 1000 nM.

On to `COc1ccccc1CNC(=O)c1cnnc(-c2ccc(OCC3CC3)c(Cl)c2)c1` [Example 36, 6-[3-chloro-4-(cyclopropylmethoxy)phenyl]-N-[(2-methoxyphenyl)methyl]pyridazine-4-carboxamide], for which the IC50 was less than 500 nM. Consider `Cc1ccccc1CNC(=O)c1cnnc(-c2ccc(OCC3CC3)c(Cl)c2)c1` [Example 37, 6-[3-chloro-4-(cyclopropylmethoxy)phenyl]-N-(o-tolylmethyl)pyridazine-4-carboxamide], for which the IC50 is less than 500 nM. As to `[2H]C1([2H])OC([2H])([2H])C([2H])([2H])N(c2ncccc2CNC(=O)c2cnnc(-c3ccc(OCC4CC4)c(Cl)c3)c2)C1([2H])[2H]` [Example 38, 6-[3-chloro-4-(cyclopropylmethoxy)phenyl]-N-[[2-(2,2,3,3,5,5,6,6-octadeuteriomorpholin-4-yl)-3-pyridyl]methyl]pyridazine-4-carboxamide], the IC50 was less than 500 nM.

For the compound `O=C(NCc1cccnc1N1CCOC(C(F)(F)F)C1)c1cnnc(-c2ccc(OCC3CC3)c(Cl)c2)c1` (stereo not shown) [Example 39, 6-[3-chloro-4-(cyclopropylmethoxy)phenyl]-N-[[2-[2-(trifluoromethyl)morpholin-4-yl]-3-pyridyl]methyl]pyridazine-4-carboxamide], the IC50 was 500 to 1000 nM. As for `O=C(NCc1cncc(F)c1)c1cnnc(-c2ccc(OCC3CC3)c(Cl)c2)c1` [Example 40, 6-[3-chloro-4-(cyclopropylmethoxy)phenyl]-N-[(5-fluoro-3-pyridyl)methyl]pyridazine-4-carboxamide], the 50% inhibitory concentration (IC50) is less than 500 nM. The figure for `CCC1CN(c2ncccc2CNC(=O)c2cnnc(-c3ccc(OCC4CC4)c(Cl)c3)c2)CCO1` (stereo not shown) [Example 41, 6-[3-chloro-4-(cyclopropylmethoxy)phenyl]-N-[[2-(2-ethylmorpholin-4-yl)-3-pyridyl]methyl]pyridazine-4-carboxamide] is less than 500 nM. Regarding `CC(C)Oc1ncccc1CNC(=O)c1cnnc(-c2ccc(OCC3CC3)c(Cl)c2)c1` [Example 42, 6-[3-chloro-4-(cyclopropylmethoxy)phenyl]-N-[(2-isopropoxy-3-pyridyl)methyl]pyridazine-4-carboxamide], the IC50 is less than 500 nM. The figure for `COc1ncccc1C(C)NC(=O)c1cnnc(-c2ccc(OCC3CC3)c(Cl)c2)c1` (stereo not shown) [Example 43, 6-(3-chloro-4-(cyclopropylmethoxy)phenyl)-N-(1-(2-methoxypyridin-3-yl)ethyl)pyridazine-4-carboxamide] is 500 to 1000 nM; for `O=C(NCc1cccnc1N1CCOCC1)c1cnnc(-c2ccc(OCC3CCC3)c(Cl)c2)c1` [Example 44, 6-[3-chloro-4-(cyclobutylmethoxy)phenyl]-N-[(2-morpholino-3-pyridyl)methyl]pyridazine-4-carboxamide] it is less than 500 nM. The figure for `CC(Oc1ccc(-c2cc(C(=O)NCc3cccnc3N3CCOCC3)cnn2)cc1Cl)C1CC1` (stereo not shown) [Example 45, 6-[3-chloro-4-(1-cyclopropylethoxy)phenyl]-N-[(2-morpholino-3-pyridyl)methyl]pyridazine-4-carboxamide] is less than 500 nM; for `O=C(NCc1cccnc1N1CCOCC1)c1cnnc(-c2ccc(OCC3CC3)c(F)c2)c1` [Example 46, 6-[4-(cyclopropylmethoxy)-3-fluoro-phenyl]-N-[(2-morpholino-3-pyridyl)methyl]pyridazine-4-carboxamide] it is less than 500 nM; for `O=C(NCc1cccnc1N1CCOCC1)c1cnnc(-c2ccc(OCC3CC3)c(C(F)(F)F)c2)c1` [Example 47, 6-[4-(cyclopropylmethoxy)-3-(trifluoromethyl)phenyl]-N-[(2-morpholino-3-pyridyl)methyl]pyridazine-4-carboxamide] it is less than 500 nM. Under `COc1ncccc1CNC(=O)c1cnnc(-c2ccc(OCC3CC3)cc2)c1` [Example 48, 6-[4-(cyclopropylmethoxy)phenyl]-N-[(2-methoxy-3-pyridyl)methyl]pyridazine-4-carboxamide] stands more than 1000 nM; under `O=C(NCc1cc(F)cnc1N1CCOCC1)c1cnnc(-c2ccc(OCC3CC3)cc2)c1` [Example 49, 6-[4-(cyclopropylmethoxy)phenyl]-N-[(5-fluoro-2-morpholino-3-pyridyl)methyl]pyridazine-4-carboxamide], more than 1000 nM; under `CC1COCCN1c1ncccc1CNC(=O)c1cnnc(-c2ccc(OCC3CC3)cc2)c1` (stereo not shown) [Example 50, 6-[4-(cyclopropylmethoxy)phenyl]-N-[[2-(3-methylmorpholin-4-yl)-3-pyridyl]methyl]pyridazine-4-carboxamide], more than 1000 nM. For the compound `O=C(NCc1cccnc1N1CC2(COC2)C1)c1cnnc(-c2ccc(OCC3CC3)cc2)c1` [Example 52, 6-[4-(cyclopropylmethoxy)phenyl]-N-[[2-(2-oxa-6-azaspiro[3.3]heptan-6-yl)-3-pyridyl]methyl]pyridazine-4-carboxamide], the IC50 was more than 1000 nM.

Take `N#Cc1ccc(-c2cc(C(=O)NCc3cc(F)cnc3N3CCOCC3)cnn2)cc1` [Example 53, 6-(4-cyanophenyl)-N-[(5-fluoro-2-morpholino-3-pyridyl)methyl]pyridazine-4-carboxamide]: the IC50 is 500 to 1000 nM.
